Among the data in patent US20240400555A1 (Initial Therapeutics, Inc., priority 2023, published 2024) are IC50 values, retold here.

The structures appear in SMILES notation. Some results are limits rather than exact numbers.

The test system of the first assay is MV-4-11 cells. The assay is described as follows: Cell Viability Assay in MV-4-11 Cells. The format is cell-based. Conditions: Homo sapiens, MV4-11, 72 h. A digest of the protocol:
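MV-4-11 cells at 7,000/well in IMDM with 10% FBS, exposed to compound for 72 h. Viability by CellTiter-Glo luminescence, normalized to DMSO as 100%, fitted with a four-parameter curve.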
As to `Cn1nnc(-c2ccc(C(=O)N(c3nccc4cc(-c5cn[nH]c5)ccc34)[C@@H]3CCCNC3)cc2)n1` [Example 395, (R)—N-(6-(1H-pyrazol-4-yl)isoquinolin-1-yl)-4-(2-methyl-2H-tetrazol-5-yl)-N-(piperidin-3-yl)benzamide], the IC50 (usually the concentration that gives 50% inhibition) was 230 nM.
The same measure, in the same setting: the figure for `O=C(c1ccc(-n2nnc3cccnc32)cc1F)N(c1nccc2cc(C#CCO)ccc12)[C@@H]1CCCNC1` [Example 398, (R)-4-(3H-[1,2,3]triazolo[4,5-b]pyridin-3-yl)-2-fluoro-N-(6-(3-hydroxyprop-1-yn-1-yl)isoquinolin-1-yl)-N-(piperidin-3-yl)benzamide] is 71 nM.

The assay is the same for the next values; noted with them: Homo sapiens, MV4-11, 72 h, MV-4-11 cells, 72 h, Cell-Titer Glo; read-out: IC50.
Turning to `O=C(c1ccc(-n2nnc3cccnc32)cc1F)N(c1nccc2cc(-c3ccncc3)sc12)[C@@H]1CCCNC1` [Example 384, 2-fluoro-N-[(3R)-3-piperidyl]-N-[2-(4-pyridyl)thieno[2,3-c]pyridin-7-yl]-4-(triazolo[4,5-b]pyridin-3-yl)benzamide], the IC50 is 110 nM.
Same read-out and setting: the value for `COc1cccc(-c2cc3c(N(C(=O)c4ccc(-n5nnc6cccnc65)cc4F)[C@@H]4CCCNC4)nccc3s2)c1` [Example 385, (R)-4-(3H-[1,2,3]triazolo[4,5-b]pyridin-3-yl)-2-fluoro-N-(2-(3-methoxyphenyl)thieno[3,2-c]pyridin-4-yl)-N-(piperidin-3-yl)benzamide] was 520 nM.
Regarding `N#Cc1cc(-c2cc3c(N(C(=O)c4ccc(-n5nnc6cccnc65)cc4F)[C@@H]4CCCNC4)nccc3s2)ccn1` [Example 386, N-[2-(2-cyano-4-pyridyl)thieno[3,2-c]pyridin-4-yl]-2-fluoro-N-[(3R)-3-piperidyl]-4-(triazolo[4,5-b]pyridin-3-yl)benzamide], the IC50 turned out to be 330 nM.
As for `N#Cc1ccc(-c2cc3c(N(C(=O)c4ccc(-n5nnc6cccnc65)cc4F)[C@@H]4CCCNC4)nccc3s2)cc1` [Example 387, N-[2-(4-cyanophenyl)thieno[3,2-c]pyridin-4-yl]-2-fluoro-N-[(3R)-3-piperidyl]-4-(triazolo[4,5-b]pyridin-3-yl)benzamide], the IC50 was determined as 300 nM.
Still for that read-out and setting: the value for `Cc1cccc2ccnc(N(C(=O)c3ccc(-c4cnn(C)c4N)cc3F)[C@@H]3CCCNC3)c12` [Example 388, 4-(5-amino-1-methyl-pyrazol-4-yl)-2-fluoro-N-(8-methyl-1-isoquinolyl)-N-[(3R)-3-piperidyl]benzamide] was 76 nM.
Same read-out and setting: the figure for `Cc1nc(-c2ccc(C(=O)N(c3nccc4cccc(C)c34)[C@@H]3CCCNC3)c(F)c2)c(N)[nH]1` [Example 389, 4-(5-amino-2-methyl-1H-imidazol-4-yl)-2-fluoro-N-(8-methyl-1-isoquinolyl)-N-[(3R)-3-piperidyl]benzamide] is over 10000 nM; for `Cc1cccc2ccnc(N(C(=O)c3ccc(-c4nn(C)nc4Br)cc3F)[C@@H]3CCCNC3)c12` [Example 390, 4-(5-bromo-2-methyl-triazol-4-yl)-2-fluoro-N-(8-methyl-1-isoquinolyl)-N-[(3R)-3-piperidyl] benzamide] it is 240 nM; for `Cc1cccc2ccnc(N(C(=O)c3ccc(-c4cn(C)nc4N)cc3F)[C@@H]3CCCNC3)c12` [Example 391, 4-(3-amino-1-methyl-pyrazol-4-yl)-2-fluoro-N-(8-methyl-1-isoquinolyl)-N-[(3R)-3-piperidyl] benzamide] it is over 10000 nM.
The same measure, in the same setting: the value for `Cc1nn(C)c(-c2ccc(C(=O)N(c3nccc4cccc(C)c34)[C@@H]3CCCNC3)c(F)c2)c1N` [Example 392, 4-(4-amino-2,5-dimethyl-pyrazol-3-yl)-2-fluoro-N-(8-methyl-1-isoquinolyl)-N-[(3R)-3-piperidyl]benzamide] was 840 nM; that for `Cc1cn(-c2ccc(C(=O)N(c3nccc4cccc(Cl)c34)[C@@H]3CCCNC3)c(F)c2)nn1` [Example 393, (R)—N-(8-chloroisoquinolin-1-yl)-2-fluoro-4-(4-methyl-1H-1,2,3-triazol-1-yl)-N-(piperidin-3-yl)benzamide] was 150 nM.
As for `Cc1nnc(-c2ccc(C(=O)N(c3nccc4cccc(C)c34)[C@@H]3CCCNC3)c(F)c2)o1` [Example 394, (R)-2-fluoro-4-(5-methyl-1,3,4-oxadiazol-2-yl)-N-(8-methylisoquinolin-1-yl)-N-(piperidin-3-yl)benzamide], the IC50 came out at 140 nM.
`C#Cc1ccc2c(N(C(=O)c3ccc(-n4nnc5cccnc54)cc3F)[C@@H]3CCCNC3)nccc2c1` [Example 396, (R)-4-(3H-[1,2,3]triazolo[4,5-b]pyridin-3-yl)-N-(6-ethynylisoquinolin-1-yl)-2-fluoro-N-(piperidin-3-yl)benzamide]: the IC50 is 150 nM.
Still for that read-out and setting: the value for `O=C(c1ccc(Nc2ncccn2)cc1F)N(c1nccc2cc(-c3cccnc3)ccc12)[C@@H]1CCCNC1` [Example 397, (R)-2-fluoro-N-(piperidin-3-yl)-N-(6-(pyridin-3-yl)isoquinolin-1-yl)-4-(pyrimidin-2-ylamino)benzamide] was 460 nM; that for `C=CC(=O)NC1CCCN(C(=O)N(c2nccc3cccc(C)c23)[C@@H]2CCCNC2)C1` (stereo partly drawn) [Example 399, 3-acrylamido-N-(8-methylisoquinolin-1-yl)-N—((R)-piperidin-3-yl)piperidine-1-carboxamide] was 1100 nM.
The same measure, in the same setting: the figure for `COC(=O)c1ccnc(Nc2ccc(C(=O)N(c3nccc4cccc(C)c34)[C@@H]3CCCNC3)c(F)c2)n1` [Example 400, methyl (R)-2-((3-fluoro-4-((8-methylisoquinolin-1-yl)(piperidin-3-yl)carbamoyl)phenyl)amino)pyrimidine-4-carboxylate] is 2400 nM; for `Cc1cccc2ccnc(N(C(=O)c3ccc(Nc4nccc(C(=O)O)n4)cc3F)[C@@H]3CCCNC3)c12` [Example 401, (R)-2-((3-fluoro-4-((8-methylisoquinolin-1-yl)(piperidin-3-yl)carbamoyl)phenyl)amino)pyrimidine-4-carboxylic acid] it is over 10000 nM.
On the same count and under the same terms, the figure for `Cc1cccc2ccnc(N(C(=O)c3ccc(Nc4nccc(C(N)=O)n4)cc3F)[C@@H]3CCCNC3)c12` [Example 402, (R)-2-((3-fluoro-4-((8-methylisoquinolin-1-yl)(piperidin-3-yl)carbamoyl)phenyl)amino)pyrimidine-4-carboxamide] is 290 nM; for `Cn1cc(-c2ccc(C(=O)N(c3nccc4cccc(CCc5cccnc5)c34)[C@@H]3CCCNC3)cc2)nn1` [Example 403, 4-(1-methyltriazol-4-yl)-N-[(3R)-3-piperidyl]-N-[8-[2-(3-pyridyl)ethyl]-1-isoquinolyl]benzamide] it is 2100 nM; for `Cn1cc(-c2ccc(C(=O)N(c3nccc4cc(-c5nnn[nH]5)ccc34)[C@@H]3CCCNC3)c(F)c2)nn1` [Example 405, (R)—N-(6-(1H-tetrazol-5-yl)isoquinolin-1-yl)-2-fluoro-4-(1-methyl-1H-1,2,3-triazol-4-yl)-N-(piperidin-3-yl)benzamide] it is 7800 nM.
As to `O=C(O)/C=C/c1ccc2c(N(C(=O)c3ccc(-n4nnc5cccnc54)cc3F)[C@@H]3CCCNC3)nccc2c1` [Example 406, (R,E)-3-(1-(4-(3H-[1,2,3]triazolo[4,5-b]pyridin-3-yl)-2-fluoro-N-(piperidin-3-yl)benzamido)isoquinolin-6-yl)acrylic acid], the IC50 was over 10000 nM.
Same read-out and setting: the value for `O=C(O)CCc1ccc2c(N(C(=O)c3ccc(-n4nnc5cccnc54)cc3F)[C@@H]3CCCNC3)nccc2c1` [Example 407] was over 10000 nM.
